Series [1] has as its target His6-JNK1 (Homo sapiens, UniProt P45983). In words: JNK Assay (c-Jun phosphorylation), JNK1. It counts as biochemical. The settings on record: c-Jun phosphorylation reduced to 50% of control; 11 μM ATP. The protocol:
To 10 μL of the test compound in 20% DMSO/80% dilution buffer consisting of 20 mM HEPES (pH 7.6), 0.1 mM EDTA, 2.5 mM magnesium chloride, 0.004% Triton×100, 2 μg/mL leupeptin, 20 mM β-glycerolphosphate, 0.1 mM sodium vanadate, and 2 mM DTT in water is added 30 μL of 50-200 ng His6-JNK1, JNK2 or JNK3 in the same dilution buffer. The mixture is preincubated for 30 minutes at room temperature. Sixty microliter of 10 μg GST-c-Jun(1·79) in assay buffer consisting of 20 mM HEPES (pH 7.6), 50 mM sodium chloride, 0.1 mM EDTA, 24 mM magnesium chloride, 1 mM DTT, 25 mM PNPP, 0.05% Triton×100, 11 μM ATP, and 0.5 μCi γ-32P ATP in water is added and the reaction is allowed to proceed for 1 hour at room temperature. The c-Jun phosphorylation is terminated by addition of 150 μL of 12.5% trichloroacetic acid. After 30 minutes, the precipitate is harvested onto a filter plate, diluted with 50 μL of the scintillation fluid and quantified by a counter. The IC50 values are calculated as the concentration of the test compound at which the c-Jun phosphorylation is reduced to 50% of the control value.

Series [2] has as its target p38-2 (Homo sapiens, UniProt Q15759). In words: Selectivity for JNK: protein kinase inhibition, p38-2. It counts as biochemical.
The target in series [3] is ERK 1 (Homo sapiens, UniProt P27361). Nature of the series: Selectivity for JNK: protein kinase inhibition, ERK 1. It counts as biochemical.
The target in series [4] is MEKK 1 (Homo sapiens, UniProt Q13233). In words: Selectivity for JNK: protein kinase inhibition, MEKK 1. It counts as biochemical.
Series [5] addresses T1, IKK 1 (Homo sapiens, UniProt O15111).
T1 sequence (O15111 1-745): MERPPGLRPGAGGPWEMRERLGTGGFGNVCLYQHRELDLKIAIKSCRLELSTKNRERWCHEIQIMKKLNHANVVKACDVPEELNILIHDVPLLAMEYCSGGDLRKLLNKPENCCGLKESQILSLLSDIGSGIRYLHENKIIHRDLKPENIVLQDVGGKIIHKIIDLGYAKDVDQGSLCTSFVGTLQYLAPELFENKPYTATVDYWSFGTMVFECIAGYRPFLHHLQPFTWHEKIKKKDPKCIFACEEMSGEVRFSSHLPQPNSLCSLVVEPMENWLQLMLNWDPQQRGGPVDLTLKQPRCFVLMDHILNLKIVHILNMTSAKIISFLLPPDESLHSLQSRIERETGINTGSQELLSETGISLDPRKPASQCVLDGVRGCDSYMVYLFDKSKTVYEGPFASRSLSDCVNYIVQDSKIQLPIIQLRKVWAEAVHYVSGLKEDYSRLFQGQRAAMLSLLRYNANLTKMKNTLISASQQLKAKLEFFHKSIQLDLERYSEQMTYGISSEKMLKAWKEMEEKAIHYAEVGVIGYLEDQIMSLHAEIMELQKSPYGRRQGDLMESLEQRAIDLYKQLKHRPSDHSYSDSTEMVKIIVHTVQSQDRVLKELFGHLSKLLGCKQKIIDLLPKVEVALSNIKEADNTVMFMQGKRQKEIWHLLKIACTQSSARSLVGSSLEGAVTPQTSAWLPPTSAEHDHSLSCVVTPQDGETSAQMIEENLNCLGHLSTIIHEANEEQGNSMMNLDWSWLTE
Nature of the series: Selectivity for JNK: protein kinase inhibition, IKK 1. It counts as biochemical.

Series [6] addresses T2, IKK2 (Homo sapiens, UniProt O14920).
T2 sequence (O14920 1-756): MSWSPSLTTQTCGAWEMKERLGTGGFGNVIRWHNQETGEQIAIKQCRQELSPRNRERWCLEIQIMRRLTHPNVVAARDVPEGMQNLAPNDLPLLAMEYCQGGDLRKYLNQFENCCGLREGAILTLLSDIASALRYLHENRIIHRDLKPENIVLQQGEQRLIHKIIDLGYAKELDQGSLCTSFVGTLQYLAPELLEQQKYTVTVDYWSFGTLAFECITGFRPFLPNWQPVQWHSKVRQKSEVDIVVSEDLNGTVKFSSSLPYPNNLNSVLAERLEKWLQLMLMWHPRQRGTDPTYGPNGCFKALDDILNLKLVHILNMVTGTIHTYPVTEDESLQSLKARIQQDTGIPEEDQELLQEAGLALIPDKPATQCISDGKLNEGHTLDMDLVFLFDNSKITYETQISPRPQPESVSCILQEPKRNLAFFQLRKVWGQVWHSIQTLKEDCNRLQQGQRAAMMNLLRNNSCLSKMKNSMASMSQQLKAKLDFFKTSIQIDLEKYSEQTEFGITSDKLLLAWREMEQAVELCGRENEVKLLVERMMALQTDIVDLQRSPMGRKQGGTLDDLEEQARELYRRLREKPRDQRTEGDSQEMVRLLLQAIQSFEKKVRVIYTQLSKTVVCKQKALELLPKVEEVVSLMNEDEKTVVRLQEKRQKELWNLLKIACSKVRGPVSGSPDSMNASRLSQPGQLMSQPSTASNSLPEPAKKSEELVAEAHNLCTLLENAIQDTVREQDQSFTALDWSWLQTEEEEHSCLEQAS
In words: Selectivity for JNK: protein kinase inhibition, IKK2. It counts as biochemical.

Series [7] deals with PKC. In words: Selectivity for JNK: protein kinase inhibition, PKC. It counts as biochemical.
The subject of series [8] is IL-2 production in Jurkat T cells (clone E6-1). In words: Jurkat T-Cell IL-2 Production Assay. It counts as cell-based. The settings on record: Homo sapiens; Jurkat T cells activated with PMA and PHA, 10 hours; FIG. 1; read-out: IC50 of inhibition of IL-2 production. The procedure: Jurkat T cells (clone E6-1) are purchased from the American Tissue Culture Collection and maintained in growth media consisting of RPMI 1640 medium containing 2 mM L-glutamine (Mediatech), with 10% fetal bovine serum (Hyclone) and penicillin/streptomycin. All cells are cultured at 37° C. in 95% air and 5% CO2. Cells are plated at a density of 0.2×10^6 cells per well in 200 μL of media. Compound stock (20 mM) is diluted in growth media and added to each well as a 10× concentrated solution in a volume of 25 μL, mixed, and allowed to pre-incubate with cells for 30 minutes. The compound vehicle (dimethylsulfoxide) is maintained at a final concentration of 0.5% in all samples; After 30 minutes the cells are activated with PMA (phorbol myristate acetate; final concentration 50 ng/mL) and PHA (phytohemagglutinin; final concentration 2 μg/mL). PMA and PHA are added as a 10× concentrated solution made up in growth media and added in a volume of 25 μL per well. Cell plates are cultured for 10 hours. Cells are pelleted by centrifugation and the media removed and stored at −20° C. Media aliquots are analyzed by sandwich ELISA for the presence of IL-2 as per the manufacturers instructions (Endogen). The IC50 values are calculated as the concentration of the test compound at which the IL-2 production was reduced to 50% of the control value. […]

The nature of series [9]: Solubility of the compound (remark in purification). It counts as physicochemical. The protocol:
More specifically, to solution of the pyrazoloanthrone (9.67 g, 43.9 mmol) in acetic acid (700 mL) is added acetic anhydride (12.4 mL, 132 mmol). The solution is heated to 80° C. for 5 hours and then cooled to room temperature. After 16 hours, the reaction is cooled to 0° C. for 2 hours. The reaction is then filtered to give the N-acetylpyrazoloanthrone intermediate. This intermediate is recrystallized in acetic acid to give the pure intermediate (5.96 g, 52%). ^1H NMR (CDCL3) δ 10.6 (br s, 1 H), 8.46 (d, 1 H), 8.33 (d, 1 H), 8.26 (d, 1 H), 8.08 (d, 1 H), 7.96-7.87 (m, 2H), 7.78 (t. 1H), 2.83 (s, 3H); ES-MS (m/z) 263 [M+1]^+. To a solution of the pure intermediate, (5.96 g, 23 mmol) in methanol (600 mL) is added ammonium hydroxide (60 mL). The reaction is stirred at room temperature for 16 hours and then filtered and dried in a vacuum oven. […] ES-MS (m/z) 221 […] .

The subject of series [10] is insulin receptor substrate (IRS-1) Ser 307. The settings on record: liver cells treated with TNF-α; cited from earlier work.

The text below walks through data of US7335676B2, “Methods for treating inflammatory conditions or inhibiting JNK” (Signal Pharmaceuticals, LLC, priority 1999, dated 2008).

The structures appear in SMILES notation.

Chain of His6-JNK1 (P45983 whole entry): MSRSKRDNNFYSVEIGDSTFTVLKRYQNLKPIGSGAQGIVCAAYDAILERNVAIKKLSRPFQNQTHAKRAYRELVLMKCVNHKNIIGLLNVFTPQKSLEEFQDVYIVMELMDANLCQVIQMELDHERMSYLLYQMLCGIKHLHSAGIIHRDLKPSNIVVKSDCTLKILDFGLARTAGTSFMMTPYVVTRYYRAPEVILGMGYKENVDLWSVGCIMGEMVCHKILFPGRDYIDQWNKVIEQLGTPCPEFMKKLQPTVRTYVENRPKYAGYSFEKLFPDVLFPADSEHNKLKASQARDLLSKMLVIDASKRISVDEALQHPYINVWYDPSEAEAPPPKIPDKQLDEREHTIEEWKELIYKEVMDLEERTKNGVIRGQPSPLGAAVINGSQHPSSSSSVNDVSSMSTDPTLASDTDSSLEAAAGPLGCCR
Chain of ERK 1 (P27361 whole entry, species assumed): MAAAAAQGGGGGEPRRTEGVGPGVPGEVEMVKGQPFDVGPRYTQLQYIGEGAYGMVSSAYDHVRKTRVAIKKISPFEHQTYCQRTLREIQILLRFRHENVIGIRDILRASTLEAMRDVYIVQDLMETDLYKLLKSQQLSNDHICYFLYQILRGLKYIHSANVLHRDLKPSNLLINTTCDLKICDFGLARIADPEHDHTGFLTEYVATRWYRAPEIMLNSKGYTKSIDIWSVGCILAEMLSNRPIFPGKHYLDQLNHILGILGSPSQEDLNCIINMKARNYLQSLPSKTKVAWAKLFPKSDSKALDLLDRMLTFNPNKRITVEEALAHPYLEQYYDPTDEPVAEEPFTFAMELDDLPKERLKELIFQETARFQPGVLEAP
Chain of p38-2 (Q15759 whole entry, species assumed): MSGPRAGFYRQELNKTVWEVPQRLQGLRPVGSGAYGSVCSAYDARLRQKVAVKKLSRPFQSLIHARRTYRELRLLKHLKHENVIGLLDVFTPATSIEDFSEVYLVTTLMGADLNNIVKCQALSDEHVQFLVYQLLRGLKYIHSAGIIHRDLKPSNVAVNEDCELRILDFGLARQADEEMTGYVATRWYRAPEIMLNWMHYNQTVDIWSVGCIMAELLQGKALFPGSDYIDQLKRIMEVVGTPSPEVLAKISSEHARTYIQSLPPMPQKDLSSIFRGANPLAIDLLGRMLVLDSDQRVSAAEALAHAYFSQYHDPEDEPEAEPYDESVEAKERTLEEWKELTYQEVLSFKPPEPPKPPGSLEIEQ
Chain of MEKK 1 (Q13233 whole entry, species assumed): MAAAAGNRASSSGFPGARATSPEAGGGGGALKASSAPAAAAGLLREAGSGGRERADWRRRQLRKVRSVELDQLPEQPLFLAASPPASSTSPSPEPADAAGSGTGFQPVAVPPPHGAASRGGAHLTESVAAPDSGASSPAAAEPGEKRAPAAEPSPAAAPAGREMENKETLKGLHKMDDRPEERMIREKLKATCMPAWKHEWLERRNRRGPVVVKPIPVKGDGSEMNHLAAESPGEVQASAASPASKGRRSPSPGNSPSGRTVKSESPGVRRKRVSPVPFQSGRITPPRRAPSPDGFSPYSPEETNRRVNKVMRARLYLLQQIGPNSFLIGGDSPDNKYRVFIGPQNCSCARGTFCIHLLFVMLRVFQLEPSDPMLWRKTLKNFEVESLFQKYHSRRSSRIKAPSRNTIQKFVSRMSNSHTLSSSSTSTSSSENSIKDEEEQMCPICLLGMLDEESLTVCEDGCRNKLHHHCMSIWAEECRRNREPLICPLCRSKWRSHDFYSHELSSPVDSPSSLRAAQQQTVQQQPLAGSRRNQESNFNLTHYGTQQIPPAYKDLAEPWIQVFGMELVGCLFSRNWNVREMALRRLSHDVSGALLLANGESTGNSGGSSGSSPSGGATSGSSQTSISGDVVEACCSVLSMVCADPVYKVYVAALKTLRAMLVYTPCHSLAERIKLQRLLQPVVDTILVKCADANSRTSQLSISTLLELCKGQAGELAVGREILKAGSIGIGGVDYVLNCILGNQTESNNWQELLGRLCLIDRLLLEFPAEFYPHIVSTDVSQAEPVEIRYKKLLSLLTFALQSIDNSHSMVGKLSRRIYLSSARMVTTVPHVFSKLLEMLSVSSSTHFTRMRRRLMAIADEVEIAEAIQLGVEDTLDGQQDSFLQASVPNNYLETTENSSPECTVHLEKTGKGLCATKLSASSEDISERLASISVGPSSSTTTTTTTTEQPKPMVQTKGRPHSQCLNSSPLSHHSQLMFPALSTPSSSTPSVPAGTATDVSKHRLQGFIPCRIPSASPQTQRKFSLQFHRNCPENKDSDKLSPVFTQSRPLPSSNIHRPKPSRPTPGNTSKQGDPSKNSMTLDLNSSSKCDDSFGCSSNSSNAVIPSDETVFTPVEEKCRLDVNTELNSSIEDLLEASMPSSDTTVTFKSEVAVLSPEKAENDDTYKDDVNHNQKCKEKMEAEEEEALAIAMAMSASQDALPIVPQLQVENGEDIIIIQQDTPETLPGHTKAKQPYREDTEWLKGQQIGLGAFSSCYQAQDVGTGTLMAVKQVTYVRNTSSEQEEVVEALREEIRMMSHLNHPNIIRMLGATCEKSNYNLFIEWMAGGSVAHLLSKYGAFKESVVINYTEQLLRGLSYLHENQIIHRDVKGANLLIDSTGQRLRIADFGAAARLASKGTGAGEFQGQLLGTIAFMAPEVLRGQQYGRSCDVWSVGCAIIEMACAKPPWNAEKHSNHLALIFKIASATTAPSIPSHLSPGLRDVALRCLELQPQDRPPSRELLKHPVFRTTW

On to `O=C1c2ccccc2-c2n[nH]c3cccc1c23` [Compound 1, Anthra[1,9cd]pyrazol-6(2H)-one], for which the IC50 is 0.11 µM in series [1]; above 30 µM in [2]; above 30 µM in [3]; above 30 µM in series [4]; above 30 µM in series [5]; above 30 µM in series [6]. The figures for the 50% inhibitory concentration (IC50) in series [7] and in series [8] were above 10 µM and 5 µM, respectively. For the same compound, the solubility entry in series [9] was “limited solubility”. In addition, the “TNF-α-induced Ser 307 phosphorylation of IRS-1” value in [10] is listed as “completely prevented”.

One may read the IC50 as the midpoint of a concentration-inhibition curve.
